Results published in ChEMBL document CHEMBL5500371, “Arginine and tryptophan-rich dendritic antimicrobial peptides that disrupt membranes for bacterial infection in vivo” (Eur J Med Chem, 2024).
≈ marks a conversion by molar mass, not a printed value. Calls of active or inactive are those of the source. The rule behind the calls is not given here. Where a SMILES comes first, the peptide text is derived from it. Side-chain parts run from the residue outwards.

What was measured:
Staphylococcus aureus [1] = assay: Additive antibacterial activity against Staphylococcus aureus ATCC 25923 assessed as fractional inhibitory concentration index at 0.25 to 4 times MIC incubated for 20 hrs in presence of vancomycin by checkerboard assay; assay type: functional
Escherichia coli [2] = assay: Antibacterial activity against Escherichia coli ATCC 25922 assessed as inhibition of bacterial growth preincubated with 10% mouse serum for 6 hrs and measured after 20 hrs by broth microdilution method; assay type: functional
Pseudomonas aeruginosa = assay: Antibacterial activity against Pseudomonas aeruginosa ATCC 27853 assessed as inhibition of bacterial growth incubated for 20 hrs by broth microdilution method; assay type: functional
Staphylococcus aureus [3] = assay: Antibacterial activity against Staphylococcus aureus ATCC 25923 assessed as inhibition of bacterial growth by measuring fold increase in MIC incubated for 20 hrs in presence of NaCl by broth microdilution method relative to control; assay type: functional
Staphylococcus aureus [4] = assay: Antibacterial activity against Staphylococcus aureus ATCC 25923 assessed as inhibition of bacterial growth by measuring fold increase in MIC incubated for 20 hrs in presence of ZnCl2 by broth microdilution method relative to control; assay type: functional
Escherichia coli [5] = assay: Antibacterial activity against Escherichia coli ATCC 25922 assessed as inhibition of bacterial growth incubated for 20 hrs by broth microdilution method; assay type: functional
Escherichia coli [6] = assay: Antibacterial activity against Escherichia coli ATCC 25922 assessed as inhibition of bacterial growth preincubated with 10% mouse serum for 1 hr and measured after 20 hrs by broth microdilution method; assay type: functional
Staphylococcus aureus [7] = assay: Antibacterial activity against Staphylococcus aureus ATCC 25923 assessed as inhibition of bacterial growth preincubated with 10% mouse serum for 1 hr and measured after 20 hrs by broth microdilution method; assay type: functional
Staphylococcus aureus [8] = assay: Synergistic antibacterial activity against Staphylococcus aureus ATCC 25923 assessed as fractional inhibitory concentration index at 0.25 to 4 times MIC incubated for 20 hrs in presence of gentamicin by checkerboard assay; assay type: functional
Acinetobacter baumannii = assay: Antibacterial activity against Acinetobacter baumannii ATCC 19606 assessed as inhibition of bacterial growth incubated for 20 hrs by broth microdilution method; assay type: functional
Staphylococcus aureus [9] = assay: Additive antibacterial activity against Staphylococcus aureus ATCC 25923 assessed as fractional inhibitory concentration index at 0.25 to 4 times MIC incubated for 20 hrs in presence of kanamycin by checkerboard assay; assay type: functional
Staphylococcus aureus [10] = assay: Antibacterial activity against Staphylococcus aureus ATCC 25923 assessed as inhibition of bacterial growth by measuring fold increase in MIC incubated for 20 hrs in presence of KCl by broth microdilution method relative to control; assay type: functional
Staphylococcus aureus [11] = assay: Antibacterial activity against Staphylococcus aureus ATCC 25923 assessed as inhibition of bacterial growth by measuring fold increase in MIC incubated for 20 hrs in presence of FeCl3 by broth microdilution method relative to control; assay type: functional
Klebsiella pneumoniae = assay: Antibacterial activity against Klebsiella pneumoniae ATCC 700603 assessed as inhibition of bacterial growth incubated for 20 hrs by broth microdilution method; assay type: functional
Staphylococcus aureus [12] = assay: Antibacterial activity against Staphylococcus aureus ATCC 25923 assessed as inhibition of bacterial growth preincubated with 10% mouse serum for 6 hrs and measured after 20 hrs by broth microdilution method; assay type: functional
Staphylococcus aureus [13] = assay: Antibacterial activity against Staphylococcus aureus ATCC 25923 assessed as inhibition of bacterial growth by measuring fold increase in MIC incubated for 20 hrs in presence of MgCl2 by broth microdilution method relative to control; assay type: functional
Escherichia coli [14] = assay: […] activity against Escherichia coli ATCC 25922 infected in ip dosed male BALB/c pulmonary infection model assessed as reduction in bacterial colonies administered at 3 and 12 hrs post infection and measured 24 hrs post infection; assay type: functional, organism-based; details: dose 5-10 mg/kg, time 12-21 hrs
Staphylococcus aureus [15] = assay: Antibacterial activity against Staphylococcus aureus ATCC 25923 assessed as inhibition of bacterial growth incubated for 20 hrs by broth microdilution method; assay type: functional
Bacillus subtilis = assay: Antibacterial activity against Bacillus subtilis ATCC 23857 assessed as inhibition of bacterial growth incubated for 20 hrs by broth microdilution method; assay type: functional
Staphylococcus aureus [16] = assay: Additive antibacterial activity against gentamicin resistant Staphylococcus aureus ATCC 25923 assessed as fractional inhibitory concentration index at 0.25 to 4 times MIC incubated for 20 hrs in presence of gentamicin by checkerboard assay; assay type: functional
[17] = Stability in mouse serum assessed as half life at 10 mM measured upto 24 hrs by RP-HPLC analysis; assay type: ADME, cell-free
Staphylococcus aureus [18] = assay: Synergistic antibacterial activity against Staphylococcus aureus ATCC 25923 assessed as fractional inhibitory concentration index at 0.25 to 4 times MIC incubated for 20 hrs in presence of rifampicin by checkerboard assay; assay type: functional
Cell membrane [19] = assay: Induction of outer membrane permeabilization in Escherichia coli assessed as increase in fluorescence intensity at 0.5 to 4 times MIC measured for 12 mins by NPN dye based assay
Escherichia coli [20] = assay: Antibiofilm activity against Escherichia coli ATCC 25922 assessed as inhibition of biofilm formation at 0.5 to 4 times MIC measured after 24 hrs by crystal violet staining based analysis; assay type: functional, organism-based
Cell membrane [21] = assay: Disruption of cell membrane morphology in Staphylococcus aureus assessed as loss of intact cell morphology at 2 times MIC measured after 0.5 to 2 hrs by SEM analysis; assay type: cell membranes; details: time 0.5-2 hrs
Cell membrane [22] = assay: Induction of outer membrane permeabilization in Escherichia coli assessed as increase in fluorescence intensity at 0.5 to 4 times MIC measured within 1 min by NPN dye based assay
Escherichia coli [23] = assay: […] activity against Escherichia coli ATCC 25922 infected in male BALB/c pulmonary infection model assessed as reduction in infiltration of pneumonia cells at 5 to 10 mg/kg, ip administered at 3 and 12 hrs post infection and measured 24 hrs post infection by H and E staining based analysis; assay type: functional, organism-based; details: dose 5-10 mg/kg, time 12-21 hrs
Staphylococcus aureus [24] = assay: Synergistic antibacterial activity against Staphylococcus aureus ATCC 25923 assessed as fractional inhibitory concentration index at 0.25 to 4 times MIC incubated for 20 hrs in presence of polymyxin B by checkerboard assay; assay type: functional
[25] = Acute toxicity in male BALB/c mouse assessed as animal death at 80 mg/kg, ip administered as single dose and measured after 3 days; assay type: organism-based; details: in vivo, 72 h, time 3 day
Cell membrane [26] = assay: Induction of inner membrane permeabilization in Escherichia coli ML-35 ATCC 43837 at 0.5 to 4 times MIC by ONPG reagent based microplate reader analysis; details: time 0-135 min, TDE = time-dependent effect
Escherichia coli [27] = assay: Drug resistance, ratio of MIC for Escherichia coli after 20 passages to MIC for Escherichia coli after initial exposure; assay type: functional
Cell membrane [28] = assay: Disruption of cell membrane morphology in Staphylococcus aureus assessed as release of cellular contents at 2 times MIC measured after 0.5 to 2 hrs by SEM analysis; assay type: cell membranes; details: time 0.5-2 hrs
Cell membrane [29] = assay: Disruption of cell membrane morphology in Staphylococcus aureus assessed as partial creasing in bacterial membrane at 2 times MIC measured after 0.5 to 2 hrs by SEM analysis; assay type: cell membranes; details: time 0.5-2 hrs
Escherichia coli [30] = assay: […] activity against Escherichia coli ATCC 25922 infected in male BALB/c pulmonary infection model assessed as reduction in liver hemorrhage at 5 to 10 mg/kg, ip administered at 3 and 12 hrs post infection and measured 24 hrs post infection by H and E staining based analysis; assay type: functional, organism-based; details: dose 5-10 mg/kg, time 12-21 hrs

With POLYMYXIN B the fractional inhibitory concentration index (FICI) (Staphylococcus aureus [1]) was 0.563, the MIC (Escherichia coli [2]; time 26.0 hrs) was 2 µM and the MIC (Pseudomonas aeruginosa) was 4 µM. For the same molecule, the fold change (FC) (Staphylococcus aureus [3]) was 4, the fold change (FC) (Staphylococcus aureus [4]) was < 2 and the MIC (Escherichia coli [5]) was 4 µM. It also gave an MIC (Escherichia coli [6]; time 21.0 hrs) of 1 µM, an MIC (Staphylococcus aureus [7]; time 21.0 hrs) of 1 µM and a fractional inhibitory concentration index (FICI) (Staphylococcus aureus [8]) of 0.313. For the same molecule, the MIC (Acinetobacter baumannii) was 2 µM, the fractional inhibitory concentration index (FICI) (Staphylococcus aureus [9]) was 0.563 and the fold change (FC) (Staphylococcus aureus [10]) was < 2. For the same molecule, the fold change (FC) (Staphylococcus aureus [11]) was < 2, the MIC (Klebsiella pneumoniae) was 4 µM and the MIC (Staphylococcus aureus [12]; time 21.0 hrs) was 1 µM. The fold change (FC) (Staphylococcus aureus [13]) was < 2, the Activity (Escherichia coli [14]) was “Dose-Dependent Effect” and the MIC (Staphylococcus aureus [15]) was 16 µM. It also gave an MIC (Bacillus subtilis) of 4 µM and a fractional inhibitory concentration index (FICI) (Staphylococcus aureus [16]) of 1.
With `N=C(N)NCCC[C@H](NC(=O)[C@@H](N)CCCNC(=N)N)C(=O)NCCCC[C@H](NC(=O)[C@H](CCCNC(=N)N)NC(=O)[C@@H](N)CCCNC(=N)N)C(=O)N[C@@H](Cc1c[nH]c2ccccc12)C(=O)N[C@@H](Cc1c[nH]c2ccccc12)C(=O)N[C@@H](Cc1c[nH]c2ccccc12)C(=O)N[C@@H](Cc1c[nH]c2ccccc12)C(N)=O` (H-RRK([Arg-Arg])WWWW-NH2) the half-life at 10000 µM [17] was 7.38 h, the “fractional inhibitory concentration index (FICI)” value (Staphylococcus aureus [1]) was 0.563 and the “fractional inhibitory concentration index (FICI)” value (Staphylococcus aureus [18]) was 0.375. For the same molecule, the MIC (Escherichia coli [2]; time 26 hrs) was 2 µM (≈ 3.03 µg/mL), the MIC (Pseudomonas aeruginosa) was 8 µM (≈ 12.1 µg/mL) and the “fold change (FC)” value (Staphylococcus aureus [3]) was “<=2”. For the same molecule, the “fold change (FC)” value (Staphylococcus aureus [4]) was “<=2”, the MIC (Escherichia coli [5]) was 16 µM (≈ 24.2 µg/mL) and the Activity (Cell membrane [19]) was “Dose-Dependent Effect”. The Activity (Escherichia coli [20]) was “Dose-Dependent Effect”, the Activity (Cell membrane [21]) was “Active” and the MIC (Escherichia coli [6]; time 21 hrs) was 1 µM (≈ 1.51 µg/mL). For the same molecule, the Activity (Cell membrane [22]) was “Active”, the MIC (Staphylococcus aureus [7]; time 21 hrs) was 1 µM (≈ 1.51 µg/mL) and the “fractional inhibitory concentration index (FICI)” value (Staphylococcus aureus [8]) was 0.313. For the same molecule, the Activity (Escherichia coli [23]) was “Active”, the “fractional inhibitory concentration index (FICI)” value (Staphylococcus aureus [24]) was 0.313 and the Activity [25] was “Non-Toxic”. For the same molecule, the MIC (Acinetobacter baumannii) was 32 µM (≈ 48.5 µg/mL), the “fractional inhibitory concentration index (FICI)” value (Staphylococcus aureus [9]) was 0.563 and the Activity (Cell membrane [26]) was “Tde”. For the same molecule, the “fold change (FC)” value (Staphylococcus aureus [10]) was “<=2”, the “fold change (FC)” value (Staphylococcus aureus [11]) was “<=2” and the MIC (Klebsiella pneumoniae) was 64 µM (≈ 96.9 µg/mL). For the same molecule, the Ratio (Escherichia coli [27]) was “<=2”, the MIC (Staphylococcus aureus [12]; time 21 hrs) was 1 µM (≈ 1.51 µg/mL) and the “fold change (FC)” value (Staphylococcus aureus [13]) was “<=2”. The Activity (Escherichia coli [14]) was “Dose-Dependent Effect”, the Activity (Cell membrane [28]) was “Active” and the MIC (Staphylococcus aureus [15]) was 16 µM (≈ 24.2 µg/mL). For the same molecule, the Activity (Cell membrane [29]) was “Active”, the MIC (Bacillus subtilis) was 4 µM (≈ 6.06 µg/mL) and the Activity (Escherichia coli [30]) was “Active”. The “fractional inhibitory concentration index (FICI)” value (Staphylococcus aureus [16]) was 0.563.
For `N=C(N)NCCC[C@H](NC(=O)[C@H](CCCNC(=N)N)NC(=O)[C@H](CCCNC(=N)N)NC(=O)[C@@H](N)CCCNC(=N)N)C(=O)N[C@@H](CCCCN)C(=O)N[C@@H](Cc1c[nH]c2ccccc12)C(=O)N[C@@H](Cc1c[nH]c2ccccc12)C(=O)N[C@@H](Cc1c[nH]c2ccccc12)C(=O)N[C@@H](Cc1c[nH]c2ccccc12)C(N)=O`, the half-life at 10000 µM [17] was 4.31 h, the “fractional inhibitory concentration index (FICI)” value (Staphylococcus aureus [1]) was 0.563 and the “fractional inhibitory concentration index (FICI)” value (Staphylococcus aureus [18]) was 0.375. For the same molecule, the MIC (Escherichia coli [2]; time 26 hrs) was 4 µM (≈ 6.06 µg/mL), the MIC (Pseudomonas aeruginosa) was 16 µM (≈ 24.2 µg/mL) and the “fold change (FC)” value (Staphylococcus aureus [3]) was “<=2”. For the same molecule, the “fold change (FC)” value (Staphylococcus aureus [4]) was “<=2”, the MIC (Escherichia coli [5]) was 8 µM (≈ 12.1 µg/mL) and the Activity (Cell membrane [19]) was “Dose-Dependent Effect”. The Activity (Escherichia coli [20]) was “Dose-Dependent Effect”, the Activity (Cell membrane [21]) was “Active” and the MIC (Escherichia coli [6]; time 21 hrs) was 2 µM (≈ 3.03 µg/mL). For the same molecule, the Activity (Cell membrane [22]) was “Active”, the MIC (Staphylococcus aureus [7]; time 21 hrs) was 2 µM (≈ 3.03 µg/mL) and the “fractional inhibitory concentration index (FICI)” value (Staphylococcus aureus [8]) was 0.375. For the same molecule, the Activity (Escherichia coli [23]) was “Active”, the “fractional inhibitory concentration index (FICI)” value (Staphylococcus aureus [24]) was 0.375 and the Activity [25] was “Non-Toxic”. For the same molecule, the MIC (Acinetobacter baumannii) was 64 µM (≈ 96.9 µg/mL), the “fractional inhibitory concentration index (FICI)” value (Staphylococcus aureus [9]) was 0.563 and the Activity (Cell membrane [26]) was “Tde”. The “fold change (FC)” value (Staphylococcus aureus [10]) was “<=2”, the “fold change (FC)” value (Staphylococcus aureus [11]) was “<=2” and the MIC (Klebsiella pneumoniae) was 32 µM (≈ 48.5 µg/mL). The Ratio (Escherichia coli [27]) was “<=2”, the MIC (Staphylococcus aureus [12]; time 21 hrs) was 2 µM (≈ 3.03 µg/mL) and the “fold change (FC)” value (Staphylococcus aureus [13]) was “<=2”. The Activity (Cell membrane [28]) was “Active”, the MIC (Staphylococcus aureus [15]) was 8 µM (≈ 12.1 µg/mL) and the Activity (Cell membrane [29]) was “Active”. The MIC (Bacillus subtilis) was 4 µM (≈ 6.06 µg/mL) and the Activity (Escherichia coli [30]) was “Active”.
